# Test results: PubChem BioAssay (NCI)
#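 Grown in 96-well plates, cells were treated for 48 hours with each compound at five concentrations. Insufficient inhibition: endpoint recorded as highest concentration tested. TGI marks complete inhibition of growth.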
# Experiments:
# Assay in all cases: DTP human tumour cell line panel, 48 h
# SNB-19 CNS = tested on: SNB-19 CNS
# COLO 205 colon = tested on: COLO 205 colon
# RXF-631 renal = tested on: RXF-631 renal
# SN12C renal = tested on: SN12C renal
# CAKI-1 renal = tested on: CAKI-1 renal
# KM20L2 colon = tested on: KM20L2 colon
# OVCAR-4 ovarian = tested on: OVCAR-4 ovarian
# HOP-92 NSCLC = tested on: HOP-92 NSCLC
# SF-539 CNS = tested on: SF-539 CNS
# LOX IMVI melanoma = tested on: LOX IMVI melanoma
# U251 CNS = tested on: U251 CNS
# NCI-H23 lung = tested on: NCI-H23 lung
# OVCAR-3 ovarian = tested on: OVCAR-3 ovarian
# A498 renal = tested on: A498 renal
# IGROV1 ovarian = tested on: IGROV1 ovarian
# ACHN renal = tested on: ACHN renal
# DU-145 prostate = tested on: DU-145 prostate
# M14 melanoma = tested on: M14 melanoma
# MDA-MB-435 = tested on: MDA-MB-435
# HCC-2998 colon = tested on: HCC-2998 colon
# MDA-N = tested on: MDA-N
# DLD-1 colon = tested on: DLD-1 colon
# RPMI-8226 leukemia = tested on: RPMI-8226 leukemia
# HT29 colon = tested on: HT29 colon
# RXF 393 renal = tested on: RXF 393 renal
# UACC-62 melanoma = tested on: UACC-62 melanoma
# KM12 colon = tested on: KM12 colon
# NCI/ADR-RES ovarian = tested on: NCI/ADR-RES ovarian
# K-562 leukemia = tested on: K-562 leukemia
# A549 NSCLC = tested on: A549 NSCLC
# MALME-3M melanoma = tested on: MALME-3M melanoma
# SNB-78 CNS = tested on: SNB-78 CNS
# UACC-257 melanoma = tested on: UACC-257 melanoma
# SR leukemia = tested on: SR leukemia
# SK-MEL-5 melanoma = tested on: SK-MEL-5 melanoma
# DMS 114 small cell lung = tested on: DMS 114 small cell lung
# T-47D breast = tested on: T-47D breast
# HL-60(TB) leukemia = tested on: HL-60(TB) leukemia
# CCRF-CEM leukemia = tested on: CCRF-CEM leukemia
# NCI-H460 lung = tested on: NCI-H460 lung
# SF-295 CNS = tested on: SF-295 CNS
# MCF7 breast = tested on: MCF7 breast
# HS 578T breast = tested on: HS 578T breast
# OVCAR-5 ovarian = tested on: OVCAR-5 ovarian
# UO-31 renal = tested on: UO-31 renal
# HOP-62 NSCLC = tested on: HOP-62 NSCLC
# NCI-H226 lung = tested on: NCI-H226 lung
# 786-0 renal = tested on: 786-0 renal
# EKVX NSCLC = tested on: EKVX NSCLC
# TK-10 renal = tested on: TK-10 renal
# HOP-18 NSCLC = tested on: HOP-18 NSCLC
# SK-MEL-28 melanoma = tested on: SK-MEL-28 melanoma
# MOLT-4 leukemia = tested on: MOLT-4 leukemia
# BT-549 breast = tested on: BT-549 breast
# NCI-H522 lung = tested on: NCI-H522 lung
# SW-620 colon = tested on: SW-620 colon
# MDA-MB-231 breast = tested on: MDA-MB-231 breast
# PC-3 prostate = tested on: PC-3 prostate
# SK-OV-3 ovarian = tested on: SK-OV-3 ovarian
# M19-MEL melanoma = tested on: M19-MEL melanoma
# LXFL 529 NSCLC = tested on: LXFL 529 NSCLC
# HCT-15 colon = tested on: HCT-15 colon
# SF-268 CNS = tested on: SF-268 CNS
# SK-MEL-2 melanoma = tested on: SK-MEL-2 melanoma
# SNB-75 CNS = tested on: SNB-75 CNS
# XF 498 CNS = tested on: XF 498 CNS
# HCT-116 colon = tested on: HCT-116 colon
# OVCAR-8 ovarian = tested on: OVCAR-8 ovarian
# DMS 273 small cell lung = tested on: DMS 273 small cell lung
smiles,measurement,setting,value
COc1ccc2c(c1)[n+]([O-])c(/C(C)=N/NC(N)=S)c(C)[n+]2[O-],TGI,SNB-19 CNS,> 100 µM
same,TGI,COLO 205 colon,> 100 µM
same,TGI,RXF-631 renal,> 100 µM
same,TGI,SN12C renal,> 100 µM
same,TGI,CAKI-1 renal,> 100 µM
same,TGI,KM20L2 colon,> 100 µM
same,TGI,OVCAR-4 ovarian,> 100 µM
same,TGI,HOP-92 NSCLC,> 100 µM
same,TGI,SF-539 CNS,97.9 µM
same,TGI,LOX IMVI melanoma,> 100 µM
same,TGI,U251 CNS,> 100 µM
same,TGI,NCI-H23 lung,> 100 µM
same,TGI,OVCAR-3 ovarian,> 95.7 µM
same,TGI,A498 renal,> 100 µM
same,TGI,IGROV1 ovarian,> 100 µM
same,TGI,ACHN renal,> 100 µM
same,TGI,DU-145 prostate,> 100 µM
same,TGI,M14 melanoma,> 100 µM
same,TGI,MDA-MB-435,> 100 µM
same,TGI,HCC-2998 colon,> 66.7 µM
same,TGI,MDA-N,> 100 µM
same,TGI,DLD-1 colon,> 100 µM
same,TGI,RPMI-8226 leukemia,> 100 µM
same,TGI,HT29 colon,> 100 µM
same,TGI,RXF 393 renal,> 100 µM
same,TGI,UACC-62 melanoma,> 100 µM
same,TGI,KM12 colon,> 100 µM
same,TGI,NCI/ADR-RES ovarian,96.5 µM
same,TGI,K-562 leukemia,> 100 µM
same,TGI,A549 NSCLC,> 100 µM
same,TGI,MALME-3M melanoma,> 100 µM
same,TGI,SNB-78 CNS,> 100 µM
same,TGI,UACC-257 melanoma,> 100 µM
same,TGI,SR leukemia,61.5 µM
same,TGI,SK-MEL-5 melanoma,> 69.1 µM
same,TGI,DMS 114 small cell lung,> 100 µM
same,TGI,T-47D breast,> 100 µM
same,TGI,HL-60(TB) leukemia,> 100 µM
same,TGI,CCRF-CEM leukemia,> 100 µM
same,TGI,NCI-H460 lung,> 71.4 µM
same,TGI,SF-295 CNS,> 100 µM
same,TGI,MCF7 breast,> 100 µM
same,TGI,HS 578T breast,> 100 µM
same,TGI,OVCAR-5 ovarian,> 100 µM
same,TGI,UO-31 renal,> 100 µM
same,TGI,HOP-62 NSCLC,> 100 µM
same,TGI,NCI-H226 lung,> 100 µM
same,TGI,786-0 renal,> 100 µM
same,TGI,EKVX NSCLC,> 100 µM
same,TGI,TK-10 renal,> 100 µM
same,TGI,HOP-18 NSCLC,> 100 µM
same,TGI,SK-MEL-28 melanoma,> 100 µM
same,TGI,MOLT-4 leukemia,> 83.8 µM
same,TGI,BT-549 breast,> 100 µM
same,TGI,NCI-H522 lung,> 100 µM
same,TGI,SW-620 colon,> 100 µM
same,TGI,MDA-MB-231 breast,> 100 µM
same,TGI,PC-3 prostate,> 100 µM
same,TGI,SK-OV-3 ovarian,> 100 µM
same,TGI,M19-MEL melanoma,> 100 µM
same,TGI,LXFL 529 NSCLC,> 100 µM
same,TGI,HCT-15 colon,> 100 µM
same,TGI,SF-268 CNS,> 100 µM
same,TGI,SK-MEL-2 melanoma,> 100 µM
same,TGI,SNB-75 CNS,> 100 µM
same,TGI,XF 498 CNS,> 100 µM
same,TGI,HCT-116 colon,> 93.2 µM
same,TGI,OVCAR-8 ovarian,> 100 µM
NC(N)=NS(=O)(=O)c1ccc(NC(=O)c2cccn3c(=O)c4ccccc4nc23)cc1,TGI,SNB-19 CNS,> 100 µM
same,TGI,COLO 205 colon,34 µM
same,TGI,RXF-631 renal,> 100 µM
same,TGI,SN12C renal,> 100 µM
same,TGI,CAKI-1 renal,> 100 µM
same,TGI,KM20L2 colon,63.7 µM
same,TGI,OVCAR-4 ovarian,> 100 µM
same,TGI,HOP-92 NSCLC,> 100 µM
same,TGI,SF-539 CNS,> 100 µM
same,TGI,LOX IMVI melanoma,> 100 µM
same,TGI,U251 CNS,> 100 µM
same,TGI,NCI-H23 lung,> 100 µM
same,TGI,OVCAR-3 ovarian,> 100 µM
same,TGI,A498 renal,> 100 µM
same,TGI,IGROV1 ovarian,> 100 µM
same,TGI,ACHN renal,> 100 µM
same,TGI,M14 melanoma,> 100 µM
same,TGI,HCC-2998 colon,> 100 µM
same,TGI,DLD-1 colon,> 100 µM
same,TGI,RPMI-8226 leukemia,65.1 µM
same,TGI,HT29 colon,> 100 µM
same,TGI,RXF 393 renal,> 100 µM
same,TGI,UACC-62 melanoma,> 100 µM
same,TGI,KM12 colon,36 µM
same,TGI,K-562 leukemia,90.1 µM
same,TGI,A549 NSCLC,> 100 µM
same,TGI,MALME-3M melanoma,> 100 µM
same,TGI,SNB-78 CNS,> 100 µM
same,TGI,UACC-257 melanoma,58.7 µM
same,TGI,SR leukemia,84.3 µM
same,TGI,SK-MEL-5 melanoma,> 100 µM
same,TGI,DMS 114 small cell lung,> 100 µM
same,TGI,HL-60(TB) leukemia,44.9 µM
same,TGI,CCRF-CEM leukemia,88 µM
same,TGI,NCI-H460 lung,> 100 µM
same,TGI,SF-295 CNS,> 100 µM
same,TGI,UO-31 renal,> 100 µM
same,TGI,HOP-62 NSCLC,> 100 µM
same,TGI,NCI-H226 lung,> 100 µM
same,TGI,786-0 renal,> 100 µM
same,TGI,EKVX NSCLC,> 100 µM
same,TGI,TK-10 renal,> 100 µM
same,TGI,HOP-18 NSCLC,> 100 µM
same,TGI,SK-MEL-28 melanoma,> 100 µM
same,TGI,MOLT-4 leukemia,85.9 µM
same,TGI,NCI-H522 lung,> 100 µM
same,TGI,SW-620 colon,> 100 µM
same,TGI,SK-OV-3 ovarian,> 100 µM
same,TGI,DMS 273 small cell lung,> 100 µM
same,TGI,M19-MEL melanoma,> 100 µM
same,TGI,LXFL 529 NSCLC,> 100 µM
same,TGI,SF-268 CNS,> 100 µM
same,TGI,SNB-75 CNS,> 100 µM
same,TGI,XF 498 CNS,76.8 µM
same,TGI,HCT-116 colon,> 100 µM
same,TGI,OVCAR-8 ovarian,> 100 µM
